Measured values: patent publication US9801880B2, “Use of kinase inhibitors” (BerGenBio AS, priority 2013, dated 2017)

Columns and labels:
[1] = biological target: T1, Flt3 (D835H) (Homo sapiens, UniProt P36888, D835H); test: KinomeScan competition binding assay
T1 construct: purchased DiscoveRx Corporation (KinomeScan service)
Excerpt: (§1) Detailed assay methodologies can be found in the relevant references cited herein, or in the KinaseProfiler Service Assay Protocols (v54, 2011) available from EMD Millipore (www.emdmillipore.com), or from the KinomeScan website (www.kinomescan.com), as appropriate. (For a more detailed description of KINOMEscan's assay technology, see: Fabian et al. A small molecule-kinase interaction map for clinical kinase inhibitors. Nat. Biotechnol. 23, 329-336 (2005)). A summary is provided below.
(§2) KinomeScan™ assays (DiscoveRx Corporation, San Diego, Calif., USA) are active-site-directed competition binding assays. […] The amount of kinase captured in test versus control samples is determined by using a qPCR method that detects the associated DNA label on each kinase molecule. Dissociation constants (Kd) for test compound-kinase interactions are calculated by measuring the amount of kinase captured on the solid support as a function of the test compound concentration.

[2] = biological target: T2, Ret (M918T) (Homo sapiens, UniProt P07949, M918T); test: KinomeScan competition binding assay
T2 construct: purchased DiscoveRx Corporation (KinomeScan service)
Excerpt: as §1, §2

[3] = biological target: T3, Ysk4 (Homo sapiens, UniProt Q56UN5); test: KinomeScan competition binding assay
T3 construct: purchased DiscoveRx Corporation (KinomeScan service)
T3 sequence (Q56UN5 whole entry): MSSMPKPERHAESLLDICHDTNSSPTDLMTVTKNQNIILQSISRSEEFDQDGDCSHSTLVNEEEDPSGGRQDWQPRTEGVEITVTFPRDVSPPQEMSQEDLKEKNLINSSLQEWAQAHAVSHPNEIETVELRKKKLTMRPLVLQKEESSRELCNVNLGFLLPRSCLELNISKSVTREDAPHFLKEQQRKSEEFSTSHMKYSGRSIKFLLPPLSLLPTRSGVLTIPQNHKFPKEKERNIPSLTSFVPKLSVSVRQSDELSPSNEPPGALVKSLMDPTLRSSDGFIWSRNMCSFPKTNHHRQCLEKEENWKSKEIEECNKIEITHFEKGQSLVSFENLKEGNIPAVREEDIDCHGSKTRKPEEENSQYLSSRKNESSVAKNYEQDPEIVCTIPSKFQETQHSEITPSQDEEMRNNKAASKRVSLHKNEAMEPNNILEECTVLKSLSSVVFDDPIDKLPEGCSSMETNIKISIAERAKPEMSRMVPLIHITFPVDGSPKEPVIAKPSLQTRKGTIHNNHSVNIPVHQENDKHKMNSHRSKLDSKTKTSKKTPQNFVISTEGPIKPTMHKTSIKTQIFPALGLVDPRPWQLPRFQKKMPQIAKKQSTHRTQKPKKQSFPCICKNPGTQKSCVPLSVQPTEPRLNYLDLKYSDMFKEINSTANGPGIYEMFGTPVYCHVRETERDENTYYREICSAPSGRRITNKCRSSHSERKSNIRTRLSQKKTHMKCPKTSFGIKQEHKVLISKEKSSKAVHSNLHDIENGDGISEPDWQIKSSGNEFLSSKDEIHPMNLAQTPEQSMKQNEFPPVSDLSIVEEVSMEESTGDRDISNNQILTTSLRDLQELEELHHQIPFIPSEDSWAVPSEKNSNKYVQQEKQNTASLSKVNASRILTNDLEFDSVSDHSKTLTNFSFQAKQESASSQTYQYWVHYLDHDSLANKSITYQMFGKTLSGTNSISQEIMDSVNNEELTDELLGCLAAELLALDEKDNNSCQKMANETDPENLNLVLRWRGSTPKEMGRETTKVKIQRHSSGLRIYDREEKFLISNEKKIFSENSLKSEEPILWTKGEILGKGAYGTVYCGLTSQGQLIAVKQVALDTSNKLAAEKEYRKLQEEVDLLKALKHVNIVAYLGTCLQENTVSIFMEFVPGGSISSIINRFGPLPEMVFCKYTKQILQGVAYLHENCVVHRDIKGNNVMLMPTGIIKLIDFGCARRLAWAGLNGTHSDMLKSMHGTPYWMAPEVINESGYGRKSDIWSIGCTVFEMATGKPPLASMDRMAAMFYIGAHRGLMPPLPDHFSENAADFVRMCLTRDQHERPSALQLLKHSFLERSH
Excerpt: as §1, §2

[4] = biological target: T4, c-Kit (V560G) (Homo sapiens, UniProt P10721, V560G); test: KinaseProfiler kinase activity assay; assay type: biochemical
T4 construct: purchased EMD Millipore Corp. (KinaseProfiler service)
Protocol: KinaseProfiler™ assays (EMD Millipore Corp. Billerica, Mass., USA) are radioligand binding assays with purified or partially-purified human kinases. Most of the KinaseProfiler™ assays are conducted in 20 mM MOPS, 1 mM EDTA, 0.01% Brij-35, 5% Glycerol, 0.1% b-mercaptoethanol, 1 mg/mL BSA. The assay involves the transfer of ^32P from γ-^32P-ATP to the target peptide, followed by washing and trapping of the labeled peptide on a filter. The concentration of γ-^32P-ATP used was at the established Km for ATP.

[5] = tested on: plasma protein; test: Plasma protein binding; assay type: in vitro ADME; conditions: in animals and humans
[6] = biological target: T5, Abl(H396P) (Homo sapiens, UniProt P00519, H396P); test: KinomeScan competition binding assay; set-up: purchased DiscoveRx Corporation (KinomeScan service)
Excerpt: as §1, §2

[7] = biological target: T6, Abl(M351T) (Homo sapiens, UniProt P00519, M351T); test: KinomeScan competition binding assay; set-up: purchased DiscoveRx Corporation (KinomeScan service)
Excerpt: as §1, §2

[8] = biological target: T7, Abl(Q252H) (Homo sapiens, UniProt P00519, Q252H); test: KinomeScan competition binding assay; set-up: purchased DiscoveRx Corporation (KinomeScan service)
Excerpt: as §1, §2

[9] = biological target: Flt1 (Homo sapiens, UniProt P17948); test: KinomeScan competition binding assay; set-up: purchased DiscoveRx Corporation (KinomeScan service)
Sequence of Flt1 (P17948 27-1338): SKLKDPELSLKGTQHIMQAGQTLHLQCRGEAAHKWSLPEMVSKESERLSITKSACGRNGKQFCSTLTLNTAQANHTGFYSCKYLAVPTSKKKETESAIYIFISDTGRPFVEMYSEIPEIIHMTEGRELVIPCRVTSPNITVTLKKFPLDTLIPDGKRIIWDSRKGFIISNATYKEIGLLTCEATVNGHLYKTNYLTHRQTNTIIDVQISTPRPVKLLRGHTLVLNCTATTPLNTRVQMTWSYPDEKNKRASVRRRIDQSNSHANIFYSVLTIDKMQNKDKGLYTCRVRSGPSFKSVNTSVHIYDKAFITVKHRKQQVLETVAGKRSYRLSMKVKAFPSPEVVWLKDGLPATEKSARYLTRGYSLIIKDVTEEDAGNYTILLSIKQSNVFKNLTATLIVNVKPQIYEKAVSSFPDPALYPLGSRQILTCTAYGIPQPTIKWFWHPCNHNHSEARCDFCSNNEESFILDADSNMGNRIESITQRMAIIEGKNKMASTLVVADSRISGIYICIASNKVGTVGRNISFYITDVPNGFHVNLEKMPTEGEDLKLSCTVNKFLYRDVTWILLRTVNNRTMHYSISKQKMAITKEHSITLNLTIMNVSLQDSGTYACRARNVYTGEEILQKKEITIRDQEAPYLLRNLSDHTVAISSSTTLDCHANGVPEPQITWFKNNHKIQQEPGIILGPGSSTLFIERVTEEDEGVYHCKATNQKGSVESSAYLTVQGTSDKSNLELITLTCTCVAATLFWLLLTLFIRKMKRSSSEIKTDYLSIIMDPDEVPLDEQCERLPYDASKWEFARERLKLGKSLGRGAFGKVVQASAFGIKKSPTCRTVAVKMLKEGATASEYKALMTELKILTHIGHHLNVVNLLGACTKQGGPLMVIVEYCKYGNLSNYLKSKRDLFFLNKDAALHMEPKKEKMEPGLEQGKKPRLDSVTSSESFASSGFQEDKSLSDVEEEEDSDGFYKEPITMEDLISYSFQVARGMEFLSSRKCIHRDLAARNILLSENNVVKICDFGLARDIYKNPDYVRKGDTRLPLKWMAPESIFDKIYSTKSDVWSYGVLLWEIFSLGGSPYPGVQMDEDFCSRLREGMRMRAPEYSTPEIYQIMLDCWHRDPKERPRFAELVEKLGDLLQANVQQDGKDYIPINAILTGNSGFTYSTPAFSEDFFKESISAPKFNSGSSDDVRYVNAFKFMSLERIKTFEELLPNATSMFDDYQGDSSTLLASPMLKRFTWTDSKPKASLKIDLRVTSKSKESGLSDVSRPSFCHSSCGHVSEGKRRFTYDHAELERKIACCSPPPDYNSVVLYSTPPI
Excerpt: as §1, §2

[10] = biological target: Flt3 (Homo sapiens, UniProt P36888); test: KinomeScan competition binding assay; set-up: purchased DiscoveRx Corporation (KinomeScan service); conditions: Flt3 wild-type
Excerpt: as §1, §2

[11] = biological target: Flt4 (Homo sapiens, UniProt P35916); test: KinomeScan competition binding assay; set-up: purchased DiscoveRx Corporation (KinomeScan service)
Excerpt: as §1, §2

[12] = biological target: Ret (V804L) (Homo sapiens, UniProt P07949, V804L); test: KinomeScan competition binding assay; set-up: purchased DiscoveRx Corporation (KinomeScan service)
Excerpt: as §1, §2

[13] = biological target: Ret (V804M) (Homo sapiens, UniProt P07949, V804M); test: KinomeScan competition binding assay; set-up: purchased DiscoveRx Corporation (KinomeScan service)
Excerpt: as §1, §2

[14] = biological target: Stk10 (Homo sapiens, UniProt O94804); test: KinomeScan competition binding assay; set-up: purchased DiscoveRx Corporation (KinomeScan service)
Excerpt: as §1, §2

[15] = biological target: TEK (Homo sapiens, UniProt Q02763); test: KinomeScan competition binding assay; set-up: purchased DiscoveRx Corporation (KinomeScan service)
Sequence of TEK (Q02763 23-1124): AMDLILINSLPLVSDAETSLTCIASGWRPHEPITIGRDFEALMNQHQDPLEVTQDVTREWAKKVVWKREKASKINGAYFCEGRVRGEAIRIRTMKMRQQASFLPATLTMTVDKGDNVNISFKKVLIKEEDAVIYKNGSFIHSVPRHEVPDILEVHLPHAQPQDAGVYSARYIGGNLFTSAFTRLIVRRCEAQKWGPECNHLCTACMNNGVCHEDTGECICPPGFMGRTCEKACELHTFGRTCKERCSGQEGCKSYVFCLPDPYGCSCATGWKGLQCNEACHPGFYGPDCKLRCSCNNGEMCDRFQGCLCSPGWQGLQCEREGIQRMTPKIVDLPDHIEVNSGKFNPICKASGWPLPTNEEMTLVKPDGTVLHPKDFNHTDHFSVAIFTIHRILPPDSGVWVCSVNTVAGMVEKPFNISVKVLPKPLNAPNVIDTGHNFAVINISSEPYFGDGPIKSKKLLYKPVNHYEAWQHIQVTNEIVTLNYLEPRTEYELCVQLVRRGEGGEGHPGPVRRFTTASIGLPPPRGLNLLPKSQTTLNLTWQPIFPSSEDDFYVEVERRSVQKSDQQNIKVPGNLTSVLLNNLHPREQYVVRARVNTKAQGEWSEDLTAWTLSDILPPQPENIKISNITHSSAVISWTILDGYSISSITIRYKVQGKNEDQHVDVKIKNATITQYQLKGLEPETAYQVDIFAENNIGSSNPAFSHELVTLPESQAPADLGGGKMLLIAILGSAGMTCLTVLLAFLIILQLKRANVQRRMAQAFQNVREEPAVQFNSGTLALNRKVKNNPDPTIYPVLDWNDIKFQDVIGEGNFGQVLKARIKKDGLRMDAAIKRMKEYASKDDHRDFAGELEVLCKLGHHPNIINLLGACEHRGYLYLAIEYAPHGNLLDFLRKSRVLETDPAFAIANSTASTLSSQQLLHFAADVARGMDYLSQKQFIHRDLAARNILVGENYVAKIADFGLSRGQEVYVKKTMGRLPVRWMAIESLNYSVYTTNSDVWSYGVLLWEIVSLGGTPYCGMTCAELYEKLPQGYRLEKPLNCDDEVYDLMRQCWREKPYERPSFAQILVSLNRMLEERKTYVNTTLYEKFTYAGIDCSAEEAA
Excerpt: as §1, §2

[16] = biological target: T8, Tyro3 (Homo sapiens, UniProt Q06418); test: KinomeScan competition binding assay; set-up: purchased DiscoveRx Corporation (KinomeScan service)
T8 sequence (Q06418 41-890): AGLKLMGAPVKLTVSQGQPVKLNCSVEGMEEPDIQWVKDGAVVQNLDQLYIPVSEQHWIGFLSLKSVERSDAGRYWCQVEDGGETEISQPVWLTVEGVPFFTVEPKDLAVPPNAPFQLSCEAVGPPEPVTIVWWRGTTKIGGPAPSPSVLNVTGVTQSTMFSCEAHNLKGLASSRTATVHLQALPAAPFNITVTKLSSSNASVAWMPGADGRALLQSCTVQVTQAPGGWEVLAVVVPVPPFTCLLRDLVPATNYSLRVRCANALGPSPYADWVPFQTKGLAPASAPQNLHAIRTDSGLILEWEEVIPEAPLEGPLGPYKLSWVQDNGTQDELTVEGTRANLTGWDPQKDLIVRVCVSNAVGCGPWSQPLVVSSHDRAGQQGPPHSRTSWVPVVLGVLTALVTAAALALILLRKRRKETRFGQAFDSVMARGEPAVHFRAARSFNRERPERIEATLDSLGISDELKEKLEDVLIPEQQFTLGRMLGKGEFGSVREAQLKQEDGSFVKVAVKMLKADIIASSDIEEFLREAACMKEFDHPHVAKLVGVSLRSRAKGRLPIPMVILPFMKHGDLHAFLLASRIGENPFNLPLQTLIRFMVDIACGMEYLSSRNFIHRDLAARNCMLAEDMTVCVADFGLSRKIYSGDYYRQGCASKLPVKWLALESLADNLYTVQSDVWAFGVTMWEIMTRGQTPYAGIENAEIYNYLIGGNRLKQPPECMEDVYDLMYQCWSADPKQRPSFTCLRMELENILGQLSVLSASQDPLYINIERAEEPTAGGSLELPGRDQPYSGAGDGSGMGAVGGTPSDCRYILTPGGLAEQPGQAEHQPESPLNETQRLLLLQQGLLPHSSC
Excerpt: as §1, §2

[17] = biological target: c-Kit (D816H) (Homo sapiens, UniProt P10721, D816H); test: KinomeScan competition binding assay; set-up: purchased DiscoveRx Corporation (KinomeScan service)
Excerpt: as §1, §2

[18] = biological target: Abl (T315I) (Homo sapiens, UniProt P00519, T315I); test: KinaseProfiler kinase activity assay; assay type: biochemical; set-up: purchased EMD Millipore Corp. (KinaseProfiler service); conditions: ATP at Km
Excerpt: as §1
(§3) KinaseProfiler™ assays (EMD Millipore Corp. Billerica, Mass., USA) are […] with purified or partially-purified human kinases. Most of the KinaseProfiler™ assays are conducted in 20 mM MOPS, 1 mM EDTA, 0.01% Brij-35, 5% Glycerol, 0.1% b-mercaptoethanol, 1 mg/mL BSA. The assay involves the transfer of ^32P from γ-^32P-ATP to the target peptide, followed by washing and trapping of the labeled peptide on a filter. The concentration of γ-^32P-ATP used was at the established Km for ATP.

[19] = biological target: T5, Abl(H396P); test: KinaseProfiler kinase activity assay; assay type: biochemical; set-up: purchased EMD Millipore Corp. (KinaseProfiler service); conditions: ATP at Km
Excerpt: as §1, §3

[20] = biological target: T6, Abl(M351T); test: KinaseProfiler kinase activity assay; assay type: biochemical; set-up: purchased EMD Millipore Corp. (KinaseProfiler service); conditions: ATP at Km
Excerpt: as §1, §3

[21] = biological target: T7, Abl(Q252H); test: KinaseProfiler kinase activity assay; assay type: biochemical; set-up: purchased EMD Millipore Corp. (KinaseProfiler service); conditions: ATP at Km
Excerpt: as §1, §3

[22] = biological target: Abl(Y253F) (Homo sapiens, UniProt P00519, Y253F); test: KinaseProfiler kinase activity assay; assay type: biochemical; set-up: purchased EMD Millipore Corp. (KinaseProfiler service); conditions: ATP at Km
Excerpt: as §1, §3

[23] = biological target: T8, Tyro3; test: KinaseProfiler kinase activity assay; assay type: biochemical; set-up: purchased EMD Millipore Corp. (KinaseProfiler service); conditions: ATP at Km
Excerpt: as §1, §3

SMILES: Nc1nc(Nc2ccc3c(c2)CC[C@@H](N2CCCC2)CC3)nn1-c1cc2c(nn1)-c1ccccc1CCC2 [Compound A, 1-(6,7-dihydro-5H-benzo[6,7]cyclohepta[1,2-c]pyridazine-3-yl)-N^3-(7-(S)-(pyrrolidin-1-yl)-6,7,8,9-tetrahydro-5H-benzo[7]annulene-2-yl)-1H-1,2,4-triazole-3,5-diamine]
- Kd [1]: 8.4 nM
- Kd [2]: 30 nM
- Kd [3]: 1.6 nM
- IC50 [4]: 0.045 µM
- binding to plasma protein [5]: > 99%
- Kd [6]: 57 nM
- Kd [7]: 104 nM
- Kd [8]: 112 nM
- Kd [9]: 400 nM
- Kd [10]: 50 nM
- Kd [11]: 460 nM
- Kd [12]: 90 nM
- Kd [13]: 72 nM
- Kd [14]: 9.2 nM
- Kd [15]: 270 nM
- Kd [16]: > 1000 nM
- Kd [17]: 0.063 µM
- IC50 [18]: 4 nM
- IC50 [19]: 22 nM
- IC50 [20]: 32 nM
- IC50 [21]: 16 nM
- IC50 [22]: 26 nM
- IC50 [23]: 413 nM
